Patent US20090196854A1, “METHODS AND COMPOSITIONS FOR USE OF CRL 5803 CELLS FOR EXPRESSION OF BIOTHERAPEUTICS AND ENCAPSULATED CELL-BASED DELIVERY” (priority 2008, published 2009)
Values after ≈ are worked out from the molar mass of the structure shown.

Columns and labels:
CRL5816 cells = assay: sensitivity to killing by 2-deoxyglucose; assay type: cell-based, human; conditions: 10 mM 2-deoxyglucose, 4 days
HTB10 = assay: sensitivity to killing by 2-deoxyglucose; assay type: cell-based, human
Experimental: (§1) The glucose requirements of CRL 5803 was also determined and compared to the HTB10 and CRL5816 cell lines.
(§2) The 2-deoxyglucose sensitivity was tested with the 4 cell lines being screened for CNS use with doses of 2-DG from 1-20 mM, the HTB10 cell line was also included in this screen as a positive control for 2-DG killing. […] However, 2-DG did result in slowed growth, and concentrations producing 50% inhibition (IC50) were calculated (based on a four-parameter fit of the data).

CRL 5803 = assay: sensitivity to killing by 2-deoxyglucose; assay type: cell-based, human; conditions: up to 20 mM 2-DG
Experimental: as §1

[1] = tested on: four candidate cell lines; assay: 2-deoxyglucose sensitivity (growth) of cell lines screened for CNS use; assay type: cell-based, human
Experimental: as §2

BON cell line = assay: 5-FU cytotoxicity screen; assay type: cell-based; conditions: Homo sapiens, neutral red endpoint after 5-7 days, read-out: concentration required to kill 50% of the cells
Experimental: Drug Exposure and elimination of BON cell line: The drug 5-FU was dissolved in DMSO at a concentration of 0.5 M, and this stock used to make media with micromolar concentrations of the drug ([…]). Cells plated in 24 or 48 well plates in growth phase were cultured with 5-FU supplemented medium for 1-2 weeks. […] This growth measurement was conducted during exposure and if cells grew or survived, growth was followed in the weeks subsequent to removal of 5-FU.
In initial screening, an endpoint assay of viability was performed with the uptake of neutral red (50 μg/ml for 1 h) after 5-7 days, later studies of the selected cell lines used resazurin to monitor growth, as well as viable cell mass.

[2] = tested on: all cell lines except for ARPE-19 and A2058 (CRL 5803, CCL-205, CRL1440); assay: sensitivity to 5-FU, growth monitored with resazurin; assay type: cell-based, human; conditions: all cell lines except ARPE-19 and A2058
A2058 = tested on: A2058
Experimental: (§3) The newly selected cell types were then screened for r sensitivity to 5-fluorouracil (5-FU). This screening was accomplished by plating the cell lines in 48 well plates, and after overnight attachment adding varying concentrations of 5-FU from 0-500 μM. The growth of the cells was then monitored at 1-2 day intervals with the fluorescent substrate resazurin.

ARPE-19 cells = assay: sensitivity to 5-FU, growth monitored with resazurin
Experimental: as §3

K3.31 = assay: 5FC and 5FU dose-response in BDNF-expressing CRL 5803 line and CD transfectants; assay type: cell-based; conditions: Homo sapiens; K3.31; read-out: IC50 for 5FU
Experimental: (§4) CRL 5803 cells expressing BDNF and CD: The CRL 5803 cell line was transfected with BDNF and clones expressing BDNF were selected. These selected clones were expanded to provide cells for transfections with cytosine deaminase plasmid (CX014). Four CD gene transfection studies were performed with three different BDNF-expressing cell lines. For each cell line at least 24 resistant clones were picked and screened for sensitivity to 100 μM 5FC. The clones with the lowest survival in 5FC (as percent of control wells) were then expanded for dose-response studies with 5FC and 5FU. Cytotoxicity of 5FC was used as an indication of CD gene expression, and this screen provided 6-9 clones per transfection. The IC50 for 5FU indicated the maximum potential cytotoxicity of the prodrug, 5FC, in cells expressing sufficient levels of CD gene and protein.

K3.3 = assay: as above; assay type: cell-based; conditions: Homo sapiens; K3.3; read-out: IC50 for 5FU
Experimental: as §4

K3.4 = assay: as above; assay type: cell-based; conditions: Homo sapiens, read-out: IC50 for 5-FU
Experimental: as §4

ARPE-19 = assay type: cell-based, human
Experimental: (§5) The cell lines were plated in 48 well plates at an appropriate dilution of cells for each cell line to provide for rapid entry into log phase of growth. The various concentrations of the selection drugs were added so that the drugs were present at the initiation of log phase growth and viable cells were determined after 7-10 days of culture. The screening used data for functional mass at the end of the study to express viable cells as a percentage of the vehicle, or no-treatment control wells. […] The % viable cell mass data was plotted, and fitted typically with a four-parameter equation. The fitted equation was used to calculate the IC50 dose. The drugs tested were G418 (inactivated by neomycin phophotransferase, NPT), hygromycin (inactivated by hygromycin phosphotansferse, HPT), blasticidin (inactivated by blasticidin deaminase, BSD), and zeocin (bound by bleomycin binding protein, BBP). These antibiotics were obtained from Invitrogen/Gibco (Invitrogen SA, Barcelona).
(§6) The drugs, G418, Zeocin, hygromycin, and blasticidin were obtained and used as described earlier. The most important aspect of these studies was to identify the concentration needed to kill all non-transfected cells.

CCL205 = assay type: cell-based, human
Experimental: as §5, §6

CRL1440 = assay type: cell-based, human
Experimental: as §5, §6

CRL5803 = assay type: cell-based, human
Experimental: as §5, §6

ARPE-19 polyclones = assay: Blsd dose-response of growth in BSD-transfected polyclones; assay type: cell-based, human
Source text: (§7) Each cell line was transfected under conditions optimized for that specific cell line, and with each of three different constructs. Within 2-3 days of transfection the cultures were selected with blasticidin at the appropriate selection concentration identified for that cell line.
(§8) The three plasmid constructs tested differed in the promoter used to control the expression of the BSD gene (commercial plasmids from Invitrogen). At the end of selection (10-14 days) the surviving cells were passaged to establish a B1sd-resistant polyclone. Each Blsd-resistant polyclonal cell line was analyzed for the capacity to grow in Blsd at varying concentrations. The Blsd dose-response curve was plotted (growth vs dose) and the IC50 calculated for each promoter construct. The IC50 was taken to indicate the average BSD enzyme expression and activity level, and to indicate the relative activity of the regulatory elements in each cell line context.

CCL205 polyclones = assay: as above; assay type: cell-based, human
Source text: as §7, §8

CRL 5803 polyclones = assay: as above; assay type: cell-based, human; conditions: for IC50 for Blsd-resistant growth: CRL 5803
Source text: as §7, §8

CRL1440 polyclones = assay: as above; assay type: cell-based, human
Source text: as §7, §8

CRL5867 = assay: selection drug and ouabain sensitivity screen; assay type: cell-based, human; conditions: resistant if IC50 >1000 μg/ml (G418, hygromycin), ouabain 10^-4 M range
Experimental: (§9) The cell lines were plated in 48 well plates at an appropriate dilution of cells for each cell line to provide for rapid entry into log phase of growth. The various concentrations of the selection drugs were added so that the drugs were present at the initiation of log phase growth and viable cells were determined after 7-10 days of culture. The screening used data for functional mass at the end of the study to express viable cells as a percentage of the vehicle, or no-treatment control wells. Each treatment concentration was based on results for at least 3-4 wells. The % viable cell mass data was plotted, and fitted typically with a four-parameter equation. The fitted equation was used to calculate the IC50 dose. The drugs tested were G418 (inactivated by neomycin phophotransferase, NPT), hygromycin (inactivated by hygromycin phosphotansferse, HPT), blasticidin (inactivated by blasticidin deaminase, BSD), and zeocin (bound by bleomycin binding protein, BBP). These antibiotics were obtained from Invitrogen/Gibco (Invitrogen SA, Barcelona). Cells were considered to be resistant if the IC50 was >1000 μg/ml for G418, hygromycin, and zeocin, or concentrations >20 μg/ml for blasticidin. Although ouabain is not a classical selection drug, the rodent gene for Na—K ATPase shifts the sensitivity into the 10^−4 M range, while human cells are sensitive in the 10^−9 to 10^−6 M range, thus IC50s in the 10^−4 M range were taken to indicate resistance.

CRL1803 = assay: selection drug and ouabain sensitivity screen; assay type: cell-based, human; conditions: ouabain IC50 in the 10^-4 M range taken as resistance
Experimental: as §9

CRL5808 = assay: selection drug and ouabain sensitivity screen; assay type: cell-based, human; conditions: ouabain IC50 in the 10^-4 M range taken as resistance
Experimental: as §9

[3] = tested on: human cell lines (CCL205, A2058, CRL1440, ARPE-19, CRL 5803); assay type: cell-based

For O=CC[C@@H](O)[C@H](O)[C@H](O)CO [2-DG, 2-deoxyglucose], the “viable cells after 2-deoxyglucose” value (CRL5816 cells) was “no detectable viable cells”, the “killing by 2-DG” value (HTB10; HTB10 positive control, doses 1-20 mM) was “killed with the lowest concentration” and the IC50 (HTB10; Homo sapiens, HTB10, read-out: 2-DG concentration for 50% killing) was 600 µM. The “sensitivity to killing by 2-deoxyglucose” value (CRL 5803) was “nor was it sensitive to killing”, the IC50 ([1]; Homo sapiens, range over the cell lines, four-parameter fit, read-out: concentrations producing 50% inhibition (IC50) of growth) was 5000 to 11000 µM and the “killing by 2-DG” value ([1]; doses of 2-DG from 1-20 mM) was “no killing”.
In the case of O=c1[nH]cc(F)c(=O)[nH]1 [5-FU, 5-fluorouracil], the IC50 (BON cell line) is reported as at least 500 µM, the concentration of 5-FU that resulted in 50% killing [2] is reported as under 35 µM and the “5-FU concentration at which killing began” value (A2058) is reported as over 500 µM. The “5-FU concentration that did not affect the cell line” value (A2058) was under 10 µM, the “5-FU concentrations with dominantly cytostatic response” value (A2058) was 10 to 100 µM and the “5-FU concentrations that slowed growth” value (ARPE-19 cells) was over 5 µM. The “5-FU doses with killing and growth arrest” value (ARPE-19 cells) was over 10 µM, the “doubling time after 5-FU exposure” value (ARPE-19 cells) was 60 h and the “lethal dose of 5-FU” value (ARPE-19 cells) was 500 µM. The “effect of 100 μM 5-FU” value (ARPE-19 cells; ARPE-19, 2 weeks of exposure) was “not a lethal dose”, the IC50 (K3.31) was 9 ± 1 µM and the IC50 (K3.3) was 5 ± 1 µM. The IC50 (K3.4) was 8.5 ± 0.3 µM.
CN(CC[C@H](N)CC(=O)N[C@H]1C=C[C@H](n2ccc(N)nc2=O)O[C@@H]1C(=O)O)C(=N)N [Blasticidin] was tested, and the “concentration found to kill non-transfected cells” value (ARPE-19) was 3 µg/mL, the “concentration found to kill non-transfected cells” value (CCL205) was 1 µg/mL and the “concentration found to kill non-transfected cells” value (CRL1440) was 1 µg/mL. The “concentration found to kill non-transfected cells” value (CRL5803) was 2 µg/mL, the “IC50 for Blsd-resistant growth” value (ARPE-19 polyclones; CMV promoter-BSD) was 12 µg/mL and the “IC50 for Blsd-resistant growth” value (ARPE-19 polyclones; EF-1a promoter-BSD) was 4.5 µg/mL. For the same compound, the “IC50 for Blsd-resistant growth” value (ARPE-19 polyclones; UBq promoter-BSD) was 3 µg/mL, the “shift in the inhibitory concentration of Blsd” value (ARPE-19 polyclones; best promoter) was 8 fold and the IC90 (CCL205 polyclones; CMV promoter) was over 3 µg/mL. For the same compound, the IC90 (CCL205 polyclones; EF-1 and UBq promoter constructs) was 0.8 µg/mL (≈ 1.89 µM), the “growth-based IC50” value (CCL205 polyclones; all three promoter constructs) was 0.6 µg/mL and the “IC50 for Blsd-resistant growth” value (CRL 5803 polyclones; CMV promoter-BSD) was 21 µg/mL. The “IC50 for Blsd-resistant growth” value (CRL 5803 polyclones; EF-1α promoter-BSD) was 3 µg/mL, the “IC50 for Blsd-resistant growth” value (CRL 5803 polyclones; UBq promoter-BSD) was 35 µg/mL and the “IC50 for growth in Blsd” value (CRL 5803 polyclones; CRL 5803 control cells transfected with NPT plasmid (no BSD)) was 1 μg-Blsd/ml. The “shift in the inhibitory concentration of Blsd” value (CRL 5803 polyclones; CRL 5803 polyclones, best promoter) was 30 fold, the “IC50 for Blsd-resistant growth” value (CRL1440 polyclones; CMV promoter-BSD) was 0.6 µg/mL and the “IC50 for Blsd-resistant growth” value (CRL1440 polyclones; EF-1 promoter polyclones) was 5 µg/mL. For the same compound, the “IC50 for Blsd-resistant growth” value (CRL1440 polyclones; UBq promoter polyclones) was 21 µg/mL.
In the case of CN[C@@H]1[C@@H](O)[C@@H](O[C@@H]2[C@@H](O)[C@H](O[C@H]3O[C@H]([C@@H](C)O)[C@@H](O)[C@H](O)[C@H]3N)[C@@H](N)C[C@H]2N)OC[C@]1(C)O [G418], the “resistance or sensitivity to drug” value (CRL5867) is reported as “sensitive to killing”, the “concentration found to kill non-transfected cells” value (ARPE-19) is reported as 175 µg/mL and the “concentration found to kill non-transfected cells” value (CCL205) is reported as 75 µg/mL. For the same compound, the “concentration found to kill non-transfected cells” value (CRL1440) was 100 µg/mL and the “concentration found to kill non-transfected cells” value (CRL5803) was 500 µg/mL.
With C[C@@H]1O[C@@H](O[C@H]2C[C@@H](O)[C@]3(CO)[C@H]4[C@H](O)C[C@]5(C)[C@@H](C6=CC(=O)OC6)CC[C@]5(O)[C@@H]4CC[C@]3(O)C2)[C@H](O)[C@H](O)[C@H]1O [ouabain] the “resistance or sensitivity to drug” value (CRL1803) was “resistant”, the “resistance or sensitivity to drug” value (CRL5808) was “resistant” and the “resistance or sensitivity to drug” value (CRL5867) was “resistance”.
In the case of O=c1ccc2nc3ccc(O)cc3oc-2c1 [resorufin], the “concentration toxic with many cells” value [3] is reported as 1000 to 10000 nM.
